The values that follow come from PMC2721690 (2009).

What all share (assay): ITC
Background: Isothermal titration calorimetry measures the heat released or taken up as one component is titrated into another.

For assay [1], the system named is GR (xpt-pbuX guanine riboswitch) (RNA, riboswitch) GGACAUAUAAUCGCGUGGAUAUGGCACGCAAGUUUCUACCGGGCACCGUAAAUGUCCGACUAUGUCC
Particulars: 100 mM KCl, 10 mM MgCl2.

The subject of assay [2] is GRA (GR C74U) (RNA, riboswitch) GGACAUAUAAUCGCGUGGAUAUGGCACGCAAGUUUCUACCGGGCACCGUAAAUGUCCGAUUAUGUCC
Particulars: 100 mM KCl, 10 mM MgCl2; for KD: apparent.

Assay [3] deals with GRA(A21U/U75A) (RNA, riboswitch) GGACAUUUAAUCGCGUGGAUAUGGCACGCAAGUUUCUACCGGGCACCGUAAAUGUCCGAUAAUGUCC
Particulars: 100 mM KCl, 10 mM MgCl2; 50 mM K-HEPES, pH 7.5, 30 °C; apparent.

The subject of assay [4] is GRA(A21G/U75C) (RNA, riboswitch) GGACAUGUAAUCGCGUGGAUAUGGCACGCAAGUUUCUACCGGGCACCGUAAAUGUCCGAUCAUGUCC
Particulars: 100 mM KCl, 10 mM MgCl2; 50 mM K-HEPES, pH 7.5, 30 °C; apparent.

Assay [5] concerns GR(A21U/U75A) (RNA, riboswitch) GGACAUUUAAUCGCGUGGAUAUGGCACGCAAGUUUCUACCGGGCACCGUAAAUGUCCGACAAUGUCC
Conditions: 100 mM KCl, 10 mM MgCl2; 50 mM K-HEPES, pH 7.5, 30 °C; apparent.

The test system of assay [6] is GR(A21G/U75C) (RNA, riboswitch) GGACAUGUAAUCGCGUGGAUAUGGCACGCAAGUUUCUACCGGGCACCGUAAAUGUCCGACCAUGUCC
Particulars: 100 mM KCl, 10 mM MgCl2; 50 mM K-HEPES, pH 7.5, 30 °C; apparent.

Where [7] appears, read: 50 mM K-HEPES, pH 7.5, 30 °C, apparent.
[8] abbreviates: 50 mM K-HEPES, pH 7.5, 30 °C, no detectable binding.
Where [9] appears, read: data not shown, text says "GR or GRA".

As to `COc1nc(N)nc2[nH]cnc12`, the KD in assay [1] (setting [7]) was determined as 23 ± 6 µM; in assay [2] (50 mM K-HEPES, pH 7.5, 30 °C), 20 ± 6 µM.

In the case of `Nc1ncnc2[nH]cnc12`, the binding entry in assay [1] (setting [8]) is on record as “no”. The KD in assay [3] stood at 2.1 ± 0.19 µM; in assay [2] (50 mM K-HEPES, pH 7.5, 30 °C), 0.47 ± 0.04 µM; in assay [4] it was 6.0 ± 1.1 µM.

With `O=c1[nH]cnc2nc[nH]c12`, the KD in assay [5] amounted to 3.3 ± 0.32 µM; in assay [6], 9.5 ± 0.22 µM. Moreover, the binding entry in assay [1] (pH 7.5 to 6.0, no change, apparent) is “yes”; in assay [2] (setting [8]), “no”.

Turning to `Nc1nc2[nH]cnc2c(=O)[nH]1`, in assay [2] (setting [8]), the binding entry is reported as “no”.

In the case of `Nc1nc(Br)c2[nH]cnc2n1`, the KD in assay [1] (setting [7]) turned out to be 2.1 ± 0.6 µM; in assay [2] (50 mM K-HEPES, pH 7.5, 30 °C), 2.7 ± 1.2 µM.

Regarding `Nc1nc(OCc2ccccc2)c2[nH]cnc2n1`, in assay [1] (setting [9]), the binding entry is given as “no”.

For `Nc1nc(Cl)c2[nH]cnc2n1`, the KD in assay [1] (setting [7]) came to 0.89 ± 0.06 µM; in assay [6], 24 ± 6.0 µM; in assay [2] (50 mM K-HEPES, pH 7.5, 30 °C), 0.72 ± 0.04 µM.

With `CNc1nc2[nH]cnc2c(=O)[nH]1`, the binding result in assay [1] (50 mM K-HEPES, pH 7.5, 30 °C, data not shown) is recorded as “no”.

For `Nc1nc(N)c2[nH]cnc2n1`, the KD in assay [1] (setting [7]) is 4.1 ± 0.6 µM; in assay [6], 13 ± 1.1 µM.

With `Nc1ncc2[nH]cnc2n1`, the KD in assay [1] (setting [7]) was found to be 4.4 ± 1.2 µM.

For `O=c1[nH]c(=O)c2[nH]cnc2[nH]1`, the binding result in assay [2] (setting [8]) is recorded as “no”.

Consider `Nc1nc(F)nc2[nH]cnc12`, for which the KD in assay [2] (50 mM K-HEPES, pH 7.5, 30 °C) is 4.0 ± 1.1 µM.

As for `c1coc(CNc2ncnc3[nH]cnc23)c1`, the binding entry in assay [2] (setting [9]) was “no”.

Regarding `CSc1nc(N)nc2[nH]cnc12`, the binding result in assay [1] (setting [9]) is recorded as “no”.

For `Nc1nc(=S)c2[nH]cnc2[nH]1`, the KD in assay [1] (setting [7]) is 0.073 µM.
